From ChEMBL document CHEMBL5113422, “Structure-based rational design enables efficient discovery of a new selective and potent AKT PROTAC degrader” (Eur J Med Chem, 2022) come the findings set out here.

Each structure is given as a SMILES string. Active and inactive are the calls of the source. The rule behind the calls is not given here.

The IC50 is the point on the concentration scale where inhibition reaches its midpoint. A word on the DC50: it is the concentration at which degradation of the target reaches its halfway point.

Experiment [1] deals with MM1.S. Description: Antiproliferative activity against human MM1.S cells assessed as cell viability measured after 7 days by CCK-8 assay. It counts as functional, cell-based. Conditions: 168 h.
For experiment [2], the system named is JeKo-1. Nature of the experiment: Antiproliferative activity against human Jeko-1 cells assessed as cell viability measured after 7 days by CCK-8 assay. It counts as functional, cell-based. Conditions: JeKo-1, 168 h. (Tetrazolium assays rely on reduction of a dye to a coloured formazan, in cell work by metabolically active cells.)
Experiment [3] concerns JeKo-1. Nature of the experiment: Antiproliferative activity against human Jeko-1 cells expressing CRBN-knockout assessed as cell viability measured after 7 days by CCK-8 assay. Type of experiment: functional, cell-based. To be noted: JeKo-1, 168 h.
Experiment [4] deals with MM1.S. Nature of the experiment: Antiproliferative activity against human MM1.S cells assessed as cell viability measured after 3 days by CCK-8 assay. Conditions: 72 h. It counts as functional, cell-based.
Experiment [5] in a line: Antiproliferative activity against human Mino cells assessed as cell viability measured after 7 days by CCK-8 assay. It counts as functional, cell-based. To be noted: 168 h.
The target of experiment [6] is Protein cereblon/RAC-alpha serine/threonine-protein kinase (Homo sapiens) (UniProt P31749+Q96SW2). Description: Protac activity at CRBN/Akt1 in human Jeko-1 cells assessed as Akt1 degradation at 500 nM after 12 hrs by immunoblot analysis. Type of experiment: cell-based. For orientation: Immunoblotting shows a protein as a band on a membrane.
Experiment [7] deals with Protein cereblon/RAC-beta serine/threonine-protein kinase (Homo sapiens) (UniProt P31751+Q96SW2). Nature of the experiment: Protac activity at CRBN/Akt2 in human Jeko-1 cells assessed as Akt2 degradation at 500 nM after 12 hrs by immunoblot analysis. It counts as cell-based.
In experiment [8] the target is T1, Protein cereblon/AKT (Homo sapiens, UniProt P31751+Q9Y243+P31749+Q96SW2). Description: Protac activity at CRBN/Akt in human Jeko-1 cells assessed as decrease in phosphorylated GSK3beta level after 24 hrs by immunoblot analysis. It counts as cell-based. To be noted: dose 10-1000 nM.
In experiment [9] the target is T1, Protein cereblon/AKT. Nature of the experiment: Protac activity at CRBN/Akt in human Jeko-1 cells assessed as Akt degradation at 250 nM after 24 hrs by immunoblot analysis relative to control. It counts as cell-based.
Experiment [10] addresses T1, Protein cereblon/AKT. Nature of the experiment: Protac activity at CRBN/Akt in human Jeko-1 cells assessed as decrease in Myc level after 24 hrs cotreated with Ibrutinib by immunoblot analysis. It counts as cell-based.
In experiment [11] the target is Protein cereblon/Zinc finger protein Aiolos (Homo sapiens) (UniProt Q96SW2+Q9UKT9). Description: Protac activity at CRBN/IKZF3 in human Jeko-1 cells assessed as IKZF3 degradation at 500 nM after 12 hrs by immunoblot analysis. It counts as cell-based.
The subject of experiment [12] is JeKo-1. Nature of the experiment: Antiproliferative activity against human Jeko-1 cells assessed as cell viability measured after 3 days cotreated with Ibrutinib by CCK-8 assay. Conditions: time 3.0 day. Type of experiment: functional, cell-based.
For experiment [13], the target named is T1, Protein cereblon/AKT. Nature of the experiment: Protac activity at CRBN/Akt in human Jeko-1 cells assessed as Akt degradation at 250 nM after 2 hrs by immunoblot analysis. It counts as cell-based.
Experiment [14] has as its target T1, Protein cereblon/AKT. Description: Protac activity at CRBN/Akt in human Jeko-1 cells assessed as Akt degradation after 24 hrs by immunoblot analysis relative to control. Type of experiment: cell-based.

Chain of Protein cereblon/RAC-beta serine/threonine-protein kinase (Homo sapiens) (P31751 whole entry, looked up): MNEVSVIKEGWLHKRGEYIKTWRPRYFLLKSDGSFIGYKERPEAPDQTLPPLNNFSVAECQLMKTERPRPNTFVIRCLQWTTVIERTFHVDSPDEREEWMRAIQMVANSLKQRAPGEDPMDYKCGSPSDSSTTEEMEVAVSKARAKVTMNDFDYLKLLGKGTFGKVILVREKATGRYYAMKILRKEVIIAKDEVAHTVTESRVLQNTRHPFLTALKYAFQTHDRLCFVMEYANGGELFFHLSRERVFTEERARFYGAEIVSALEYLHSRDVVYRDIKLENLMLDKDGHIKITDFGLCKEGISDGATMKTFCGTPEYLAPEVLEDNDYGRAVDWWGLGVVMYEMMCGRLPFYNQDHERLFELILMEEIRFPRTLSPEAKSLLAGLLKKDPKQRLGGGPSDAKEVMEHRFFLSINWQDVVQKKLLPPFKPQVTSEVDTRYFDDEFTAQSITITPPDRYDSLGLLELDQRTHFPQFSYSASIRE
Chain of Protein cereblon/RAC-beta serine/threonine-protein kinase (Homo sapiens) (Q96SW2 whole entry, looked up): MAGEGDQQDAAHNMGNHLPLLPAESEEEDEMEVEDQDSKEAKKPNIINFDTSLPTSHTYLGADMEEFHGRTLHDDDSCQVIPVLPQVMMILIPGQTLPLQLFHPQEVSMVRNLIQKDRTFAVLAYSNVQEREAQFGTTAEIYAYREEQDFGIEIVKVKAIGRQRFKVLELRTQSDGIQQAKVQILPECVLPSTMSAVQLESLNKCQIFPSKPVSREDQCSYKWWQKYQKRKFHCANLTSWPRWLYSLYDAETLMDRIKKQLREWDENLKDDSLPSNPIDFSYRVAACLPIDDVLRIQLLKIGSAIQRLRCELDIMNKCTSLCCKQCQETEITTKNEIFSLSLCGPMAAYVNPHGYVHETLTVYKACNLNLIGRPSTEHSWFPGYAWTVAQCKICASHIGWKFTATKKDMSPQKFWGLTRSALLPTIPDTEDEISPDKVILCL
T1 sequence (P31751 whole entry): as the sequence (P31751 whole entry, looked up) above
T1 sequence (Q9Y243 whole entry): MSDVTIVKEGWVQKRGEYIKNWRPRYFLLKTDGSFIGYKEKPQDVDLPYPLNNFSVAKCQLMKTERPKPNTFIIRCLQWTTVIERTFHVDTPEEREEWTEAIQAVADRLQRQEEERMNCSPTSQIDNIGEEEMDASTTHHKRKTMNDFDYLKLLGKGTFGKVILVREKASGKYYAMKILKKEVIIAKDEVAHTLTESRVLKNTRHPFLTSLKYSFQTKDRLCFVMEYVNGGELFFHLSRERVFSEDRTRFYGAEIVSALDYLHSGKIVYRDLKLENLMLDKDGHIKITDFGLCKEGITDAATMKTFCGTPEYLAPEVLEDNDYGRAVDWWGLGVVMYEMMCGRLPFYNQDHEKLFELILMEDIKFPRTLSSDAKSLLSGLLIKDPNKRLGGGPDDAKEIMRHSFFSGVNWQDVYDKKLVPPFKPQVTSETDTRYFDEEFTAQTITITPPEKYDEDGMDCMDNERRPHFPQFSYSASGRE
T1 sequence (P31749 whole entry): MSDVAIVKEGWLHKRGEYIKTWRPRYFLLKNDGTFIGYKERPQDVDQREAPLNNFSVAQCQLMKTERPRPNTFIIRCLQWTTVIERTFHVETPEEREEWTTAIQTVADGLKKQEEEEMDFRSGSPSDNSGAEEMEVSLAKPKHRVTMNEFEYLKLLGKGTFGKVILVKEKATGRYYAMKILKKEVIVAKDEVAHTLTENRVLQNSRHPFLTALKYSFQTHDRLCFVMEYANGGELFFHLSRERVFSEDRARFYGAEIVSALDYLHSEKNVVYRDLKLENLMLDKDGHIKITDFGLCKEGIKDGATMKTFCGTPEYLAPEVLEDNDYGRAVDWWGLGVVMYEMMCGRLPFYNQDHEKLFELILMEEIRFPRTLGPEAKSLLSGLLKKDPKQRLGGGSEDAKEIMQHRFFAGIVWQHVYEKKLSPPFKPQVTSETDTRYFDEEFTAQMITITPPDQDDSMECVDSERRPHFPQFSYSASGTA
T1 sequence (Q96SW2 whole entry): as the sequence (Q96SW2 whole entry, looked up) above
Chain of Protein cereblon/Zinc finger protein Aiolos (Homo sapiens) (Q96SW2 whole entry, looked up): as above
Chain of Protein cereblon/Zinc finger protein Aiolos (Homo sapiens) (Q9UKT9 whole entry, looked up): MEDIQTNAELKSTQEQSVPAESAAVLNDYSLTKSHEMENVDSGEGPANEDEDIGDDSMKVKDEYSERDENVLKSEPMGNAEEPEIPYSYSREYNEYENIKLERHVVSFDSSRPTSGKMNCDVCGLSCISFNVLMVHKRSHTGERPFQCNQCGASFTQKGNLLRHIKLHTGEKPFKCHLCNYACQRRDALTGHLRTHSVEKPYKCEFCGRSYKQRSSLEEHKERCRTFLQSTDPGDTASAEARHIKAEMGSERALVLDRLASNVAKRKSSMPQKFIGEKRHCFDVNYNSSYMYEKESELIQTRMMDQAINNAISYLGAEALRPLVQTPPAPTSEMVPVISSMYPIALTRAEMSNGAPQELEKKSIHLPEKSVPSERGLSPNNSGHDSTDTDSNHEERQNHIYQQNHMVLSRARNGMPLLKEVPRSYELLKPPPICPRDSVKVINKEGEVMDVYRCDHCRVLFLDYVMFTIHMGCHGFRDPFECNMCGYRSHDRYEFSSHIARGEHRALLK
Chain of Protein cereblon/RAC-alpha serine/threonine-protein kinase (Homo sapiens) (P31749 whole entry, looked up): as the sequence (P31749 whole entry) above
Chain of Protein cereblon/RAC-alpha serine/threonine-protein kinase (Homo sapiens) (Q96SW2 whole entry, looked up): as the sequence (Q96SW2 whole entry, looked up) above

As for `Nc1cccc2c1C(=O)N(C1CCC(=O)NC1=O)C2=O` (stereo not given) [POMALIDOMIDE], the 50% inhibitory concentration (IC50) in the experiment on MM1.S [1] is 0.0219 µM; in the experiment with JeKo-1 [2] it was 2.62 µM; in the experiment on JeKo-1 [3], over 20 µM; in the experiment on MM1.S [4], 0.838 µM; in [5] it was 16.5 µM.
As for `Cn1ncc(Cl)c1-c1cc(C(=O)N[C@@H]2CN[C@H](CC(=O)Nc3ccc(OCCOCCOCCNc4cccc5c4C(=O)N(C4CCC(=O)NC4=O)C5=O)cc3)C[C@H]2c2cccc(F)c2)oc1Cl` (stereo not given in full), the half-inhibitory concentration (IC50) worked out at 0.0234 µM in the experiment on MM1.S [1]; 0.205 µM with JeKo-1 [2]; 2.32 µM in the experiment with JeKo-1 [3]; 0.079 µM with MM1.S [4]; 2.27 µM in experiment [5]. Besides, the outcome (in experiment [6]; in experiment [7]; at Protein cereblon/AKT [8]; at Protein cereblon/AKT [10]; in experiment [11]; in the experiment with JeKo-1 [12]) was Active. Moreover, the outcome at Protein cereblon/AKT [13] was Active. In addition, the Activity on Protein cereblon/AKT [9] is 95%. Besides, the DC50 at Protein cereblon/AKT [14] was 0.028 µM.
As to `Nc1cccc2c1CN(C1CCC(=O)NC1=O)C2=O` (stereo not given) [LENALIDOMIDE], the half-inhibitory concentration (IC50) in the experiment on MM1.S [1] is 0.0702 µM; in the experiment with JeKo-1 [2] it was over 20 µM; with JeKo-1 [3] it was over 20 µM; in the experiment with MM1.S [4] it was over 20 µM; in [5], over 20 µM.
For `COCCOCCOCCNc1cccc2c1C(=O)N(C1CCC(=O)NC1=O)C2=O` (stereo not given), the concentration for half-maximal inhibition (IC50) was 0.0403 µM in the experiment with MM1.S [1]; over 20 µM in the experiment with JeKo-1 [2]; over 20 µM in the experiment with JeKo-1 [3]; 4.79 µM in the experiment on MM1.S [4]; over 20 µM in experiment [5].
Turning to `Cn1ncc(Cl)c1-c1ccc(C(=O)N[C@@H]2CN[C@H](CC(=O)Nc3ccc(OCCOCCOCCNc4cccc5c4C(=O)N(C4CCC(=O)NC4=O)C5=O)cc3)C[C@H]2c2cccc(F)c2)s1` (stereo not given in full), the Activity on Protein cereblon/AKT [9] amounted to 95%.
With `CNC(=O)C[C@@H]1C[C@@H](c2cccc(F)c2)[C@H](NC(=O)c2ccc(-c3c(Cl)cnn3C)s2)CN1`, the concentration for half-maximal inhibition (IC50) amounted to 0.0724 µM in the experiment on MM1.S [1]; 0.506 µM in the experiment with JeKo-1 [2]; 0.35 µM in the experiment on JeKo-1 [3]; 0.0729 µM in the experiment on MM1.S [4]; 3.37 µM in experiment [5].
